Assay results: patent publication EP0049203A1, “Benzoxazolinones substituted in the 6-position by an amino-alcohol or amino-ketone chain, their preparation and their therapeutic use” (RIOM LABORATOIRES- C.E.R.M. (Société Anonyme), priority 1980, dated 1982)

Tests used:
[1] = target: T1, récepteurs β1 de l'oreillette gauche de cobaye (Cavia porcellus, UniProt H0W3H1); assay: Antagonism of the positive inotropic effect of isoprenaline on electrically stimulated isolated left atrium; details: β1, guinea-pig left atrium; for Kb: antagonism of isoprenaline, read-out: pA2 (converted)
T1 construct: l'oreillette gauche de cobaye stimulée électriquement; from tissue; host or cells: guinea pig left atrium, electrically stimulated
Excerpt: (§1) L'activité pharmacologique des composés de l'invention a été révélée par recherche d'une interférence avec les récepteurs adrénergiques β1, β2 et α in vitro, conformément aux protocoles expérimentaux ci-après.
(§2) Récepteurs adrénergiques β1 : on recherche l'antagonisme de l'effet inotrope positif de l'isoprénaline sur les récepteurs β1 de l'oreillette gauche de cobaye stimulée électriquement.
(§3) Les résultats sont exprimés dans le tableau I par les paramètres usuels de pharmacologie moléculaire, selon les critères utilisés par Van Rossum [Arch. Int.

[2] = target: T2, récepteurs adrénergiques β2 du muscle trachéal de cobaye (Cavia porcellus, UniProt Q8K4Z4); assay: Antagonism of the bronchodilator effects of isoprenaline on isolated tracheal muscle; details: guinea-pig tracheal muscle; for INTERFERENCE AVEC LES RECEPTEURS ADRENERGIQUES β2: result in words; for Kb: β2, antagonism of isoprenaline, read-out: pA2 (converted)
T2 construct: du muscle trachéal de cobaye; from tissue; host or cells: guinea pig tracheal muscle
Excerpt: as §1
Récepteurs adrénergiques β2 : on recherche l'antagonisme des effets bronchodilatateurs de l'isoprénaline sur les récepteurs p2 du muscle trachéal de cobaye.
as §3

[3] = system: Récepteurs adrénergiques α; assay: Interference with noradrenaline-induced contraction (cumulative doses) of isolated vas deferens; details: rat vas deferens; for pA2: noradrenaline contraction; for INTERFERENCE AVEC LES RECEPTEURS ADRENERGIQUES α: result in words
Excerpt: as §1
Récepteurs adrénergiques α : on étudie l'interférence des composés de l'invention sur la contraction du vas déferens isolé du rat, provoquée par des doses cumulatives de noradrénaline.
as §3

[4] = system: récepteurs β1 de l'oreillette gauche de cobaye; assay: Antagonism of the positive inotropic effect of isoprenaline on electrically stimulated isolated left atrium; details: for cardiosélectivité: β1 versus β2, in words
Excerpt: as §1, §2, §3

souris [5] = assay: Thermal stimulus analgesia test (Eddy and Leimbach); assay type: in vivo; details: Mus musculus, po; test de stimulus thermique; par voie orale chez la souris; read-out: DE 50 (dose qui augmente de 50 % le temps de réaction)
Method: Dans le test de stimulus thermique [selon EDDY N.B., LEIMBACH D.J. Pharmacol. Exp. Ther., 107, 385-393, (1953)J la DE 50 de ce composé ― qui représente la dose de produit qui augmente de 50 % le temps de réaction des animaux traités par rapport à celui du groupe des animaux de contrôle - est de 4,4 mg/kg par voie orale chez la souris.

souris [6] = assay: Chemical stimulus analgesia test (Siegmund; abdominal cramps); assay type: in vivo; details: Mus musculus, po; test de stimulus chimique; par voie orale chez la souris; read-out: DE 50 (dose qui inhibe de 50 % le nombre de crampes abdominales)
Method: Dans le test de stimulus chimique [SIEGMUND E., CADMUS R. GO LU - Proc. Soc. Exp. Biol. Med. 95, 729-731, (1957)] la DE 50 de ce composé - qui représente la dose qui inhibe de 50 % le nombre de crampes abdominales par rapport à celui du groupe des animaux de contrôle - est de 9 mg/kg par voie orale chez la souris.

T1 sequence (H0W3H1 1-470): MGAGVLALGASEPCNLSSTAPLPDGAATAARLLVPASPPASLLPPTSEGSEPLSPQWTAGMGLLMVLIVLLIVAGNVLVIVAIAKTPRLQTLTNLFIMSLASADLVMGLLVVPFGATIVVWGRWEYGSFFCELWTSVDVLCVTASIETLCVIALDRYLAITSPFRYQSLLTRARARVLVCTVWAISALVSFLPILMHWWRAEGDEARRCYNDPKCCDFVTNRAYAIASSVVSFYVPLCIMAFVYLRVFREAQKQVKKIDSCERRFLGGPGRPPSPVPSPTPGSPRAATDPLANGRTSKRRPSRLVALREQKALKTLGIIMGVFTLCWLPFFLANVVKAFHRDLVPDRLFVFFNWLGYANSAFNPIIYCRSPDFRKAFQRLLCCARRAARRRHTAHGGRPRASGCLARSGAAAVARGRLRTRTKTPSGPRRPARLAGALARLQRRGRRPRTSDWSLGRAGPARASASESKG
T2 sequence (Q8K4Z4 whole entry): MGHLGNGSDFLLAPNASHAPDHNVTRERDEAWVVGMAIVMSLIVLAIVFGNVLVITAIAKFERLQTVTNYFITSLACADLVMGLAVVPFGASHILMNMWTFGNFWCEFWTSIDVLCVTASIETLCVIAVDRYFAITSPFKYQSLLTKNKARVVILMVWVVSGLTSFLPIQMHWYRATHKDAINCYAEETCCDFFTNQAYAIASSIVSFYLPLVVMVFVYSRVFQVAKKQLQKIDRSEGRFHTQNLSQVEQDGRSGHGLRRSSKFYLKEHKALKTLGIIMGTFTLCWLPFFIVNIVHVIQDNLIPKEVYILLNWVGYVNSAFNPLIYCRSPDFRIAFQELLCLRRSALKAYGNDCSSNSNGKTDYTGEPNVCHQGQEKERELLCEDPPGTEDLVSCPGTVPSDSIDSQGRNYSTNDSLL

SMILES | Kb [1] | INTERFERENCE AVEC LES RECEPTEURS ADRENERGIQUES β2 [2] | pA2 ([3]; α) | pD'2 [1] | cardiosélectivité [4] | further results
COc1ccccc1N1CCN(CC(O)c2ccc3c(c2)oc(=O)n3C)CC1 (stereo not drawn) [compound 22] | 2.82 µM | Agoniste partiel | pA2 = 5,7 ± 0,25 | – | – | –
COc1ccccc1N1CCN(CC(=O)c2ccc3c(c2)oc(=O)n3C)CC1 [compound 9, 2 [4-(2-méthoxyphényl)pipérazinyl] 1-(3-méthyl 2-benzoxazolinon-6-yl) éthanone] | 3.98 µM | – | – | 3,8 | – | –
CC(C)NCC(O)c1ccc2[nH]c(=O)oc2c1 (stereo not drawn) [compound 18, 2-isopropylamino 1-(2-benzoxazolinon-6-yl) éthanol] | 0.0347 µM | – | pA2 = 6,03 ± 0,43 | – | de faible intensité | Kb [2]: 0.776 µM
CC(C)(C)NCC(O)c1ccc2[nH]c(=O)oc2c1 (stereo not drawn) [compound 19] | 0.224 µM | – | – | – | – | Kb [2]: 1.48 µM; INTERFERENCE AVEC LES RECEPTEURS ADRENERGIQUES α [3]: Inactif
COc1ccccc1N1CCN([C@@H](C)[C@H](O)c2ccc3c(c2)oc(=O)n3C)CC1 (relative stereo) [compound 27, Erythro 2-[4-(2-méthoxyphényl)pipéraziny] 1-(3-méthyl-2-benzoxazolinon-6-yl) propanol] | 2.24 µM | – | 6,14 ± 0,31 | – | – | Kb [2]: 20.9 µM; pD'2 ([3]; α): 4,73 ± 0,38
C[C@@H]([C@H](O)c1ccc2c(c1)oc(=O)n2C)N1CCC(Cc2ccccc2)CC1 (relative stereo) [compound 29] | 2.95 µM | Agoniste partiel | – | 4,50 ± 0,21 | – | –
Cn1c(=O)oc2cc(C(O)CN3CCN(c4cccc(C(F)(F)F)c4)CC3)ccc21 (stereo not drawn) [compound 31, 2-[4-(3-trifluorométhyl)phénylpipérazinyl] 1-(3-méthyl 2-benzoxazolinon-6-yl) éthanol] | – | – | – | – | – | activité sur les récepteurs adrénergiques ([4]; adrenergic receptors in general (β1, β2, α), in words): n'a pas une activité de même niveau que les autres composés de l'invention; ED50 (souris [5]): 4.4 mg/kg; ED50 (souris [6]): 9 mg/kg
CC(C(=O)c1ccc2c(c1)oc(=O)n2C)N1CCN(c2ccc(F)cc2)CC1 (stereo not drawn) [compound 10] | 1.26 µM | Agoniste partiel | pA2 = 5,3 ± 0,12 | 4,59 ± 0,61 | – | –
C[C@@H]([C@H](O)c1ccc2c(c1)oc(=O)n2C)N1CCN(c2ccc(F)cc2)CC1 (relative stereo) [compound 28] | 6.17 µM | Inactif | – | 4 | importante, voire totale | INTERFERENCE AVEC LES RECEPTEURS ADRENERGIQUES α [3]: Inactif
Cn1c(=O)oc2cc(C(O)CN3CCC(Cc4ccccc4)CC3)ccc21 (stereo not drawn) [compound 25, 2-(4-benzylpipéradinyl) 1-(3-méthyl 2-benzoxazolinon-6-yl) éthanol] | 2 µM | Inactif | – | 4,2 | importante, voire totale | –
NCC(O)c1ccc2[nH]c(=O)oc2c1 (stereo not drawn) [compound 16] | 6.31 µM | Inactif | pA2 = 4,73 ± 0,52 | – | – | –
Cn1c(=O)oc2cc(C(=O)CN3CCC(Cc4ccccc4)CC3)ccc21 [compound 13, 2-(4-benzyl-pipéridinyl) 1-(3-méthyl 2-benzoxazolinon-6-yl) éthanone] | 5.01 µM | – | – | – | – | –
O=c1[nH]c2ccc(C(O)CN3CCN(c4ccc(F)cc4)CC3)cc2o1 (stereo not drawn) [compound 30] | 3.98 µM | Inactif | – | – | importante, voire totale | –
